The test system of test [1] is monoclonal antibody of the present invention (CMU-1). The test is described as follows: indirect competitive inhibition ELISA, cross reactivity test with monoclonal antibody CMU-1. The class given is binding, mouse. The settings on record: for percent absorption (reactivity) with monoclonal antibody CMU-1: compound final concentration 0.5 mg/mL, uracil-BSA coated plate, absorbance at 415 nm; for dose-dependent response of the antibody to the compound / ED30 (concentration when the percent absorption reached 30%) / binding ability relative to pseudouridine: monoclonal antibody CMU-1; for binding ability relative to pseudouridine: ratio of ED30 values. The method, then:
Into a 96-well immunoplate, uracil-BSA complex (10 μg/mL as reduced to BSA) was placed at 50 μL/well, and allowed to stand overnight at 4° C. Subsequently, the immunoplate was washed 7 times with PBS containing 0.1% polyoxyethylene(20) sorbitan monolaurate (product of Wako Pure Chemical Industries, Ltd.; a product equivalent to Tween 20) (pH 7.3-7.7, product of Nissui Chemical; hereinafter referred to as PBS-T). Subsequently, 0.2% gelatin (200 μL) was added to each well, and the immunoplate was left for 2 hours at 37° C., or overnight at 4° C.
Subsequently, the immunoplate was washed five times with PBS-T, and one of the below-described samples (50 μL/well) was added to the immunoplate, which was then left for 1 hour at 37° C. • (i) a reaction mixture prepared by mixing the supernatant of the hybridoma culture obtained in Example 3 (hereinafter referred to as the hybridoma culture supernatant) (30 μL) and PBS (30 μL) for reaction at 37° C. for one hour; • a (ii) a reaction mixture obtained by mixing the hybridoma culture supernatant (30 μL) and a solution (30 μL) of uracil in PBS (uracil concentration: 1 mg/mL) for reaction at 37° C. for one hour; and • (iii) 1 μg/mL healthy mouse IgG (product of Biological). Subsequently, the wells were washed five times with PBS-T, and to each well was added alkaline-phosphatase-labeled (AP-labeled) anti-mouse-multivalent-immunoglobulin antibody (product of Sigma), which had been 1,000-fold diluted with 0.1% gelatin, (50 μL). Subsequently, the mixture was allowed to stand for one hour at 37° C. Subsequently, the wells were washed five times with PBS-T. A solution of disodium p-nitrophenylphosphate (product of Wako Chemical Industries, Ltd.) dissolved in substrate buffer (1 mg/mL) was added to each well (100 μL/well), and left for 30 minutes at 37° C. To the reaction mixtures, 2N NAOH (50 μL/well) was added and then mixed by use of a platemixer, to thereby stop the reaction. Absorbance at 415 nm was measured by use of a microplate reader.
The percent absorption was calculated by use of the following equation: [formula] wherein, • ODPBS: Absorbance measured by means of ELISA for a sample in which the hybridoma culture supernatant had been pre-treated only with PBS), • ODuracil: Absorbance measured by means of ELISA for a sample in which the hybridoma culture supernatant had been pre-treated with uracil in PBS), and • ODcontrol: Absorbance measured in ELISA of a sample treated only with heal thy mouse IgG).
By use of the hybridoma culture supernatant obtained from the above-described incubation, the reactivity of the monoclonal antibody, CMU-1, of the present invention was studied through the indirect competitive inhibition ELISA described in Example 4.
Specifically, an aliquot (50 μL) of uracil-BSA complex (10 μg/mL) was placed in each well of a 96-well immunoplate (Immunoplate I, product of Nunc), and allowed to stand overnight at 4° C. Each well was washed five times with PBS-T (200 μL) containing 0.1% Tween 20. Subsequently, to each well of the immunoplate, PBS (200 μL) containing 0.2% gelatin serving as a blocking agent was added, and the mixture was allowed to stand overnight at 4° C. Each well was again washed five times with PBS-T, to thereby prepare a plate.
Meanwhile, each of the follow samples: • (i) a mixture of the aforementioned hybridoma culture supernatant (30 μL) and PBS (30 μL); • (ii) a reaction mixture obtained by mixing the hybridoma culture supernatant (30 μL) and PBS (30 μL) containing uracil at a concentration of 0.03-1.0 mg/mL and causing reaction to proceed at 37° C. for one hour; and • (iii) […] healthy mouse IgG (product of Biologicals) was added to a 96-well plate to which the above antigen had been adsorbed (50 μL/well), and the plate was left to stand for one hour at 37° C. […]

The subject of test [2] is monoclonal antibody (SU-1) derived from hybridoma FERM BP-6141. As to the kind of experiment: indirect competitive inhibition ELISA, cross reactivity test with comparative monoclonal antibody SU-1. Particulars: compound final concentration 0.5 mg/mL; uracil-BSA coated plate; absorbance at 415 nm. The class given is binding. On the procedure: Meanwhile, each of the follow samples: • (i) a mixture of the aforementioned hybridoma culture supernatant (30 μL) and PBS (30 μL); • (ii) a reaction mixture obtained by mixing the hybridoma culture supernatant (30 μL) and PBS (30 μL) containing uracil at a concentration of 0.03-1.0 mg/mL and causing reaction to proceed at 37° C. for one hour; and • (iii) […] healthy mouse IgG (product of Biologicals) was added to a 96-well plate to which the above antigen had been adsorbed (50 μL/well), and the plate was left to stand for one hour at 37° C. Subsequently, the plate was washed five times with PBS-T, and to each well, aliquots (50 μL) of AP-labeled anti-mouse antibody (serving as the second antibody, product of Sigma), which had been 1,000-fold diluted with PBS containing 0.1% gelatin, were added, and the mixtures were allowed to stand for one hour at 37° C. Subsequently, each well was washed five times with PBS-T. An enzyme substrate buffer solution (p-nitrophenylphosphate, 1 mg/mL, pH 9.8) was added to each well (100 μl/well), and left to stand for 30 minutes at 37° C. To the reaction mixtures, 2N NaOH ([…]) was added, to thereby stop the reaction. Absorbance at 415 nm was measured by use of a microplate reader. For comparison, the same procedure was independently performed on hybridoma FERM BP-6141 described in PCT publication No. WO99/20748. The percent absorption was calculated from the above-described equation.
In a manner similar to that of Example 7, reactivity of the monoclonal antibody of the present invention with other compounds was investigated. Specifically, the procedure of step (ii) of Example 7 for investigating inhibition with uracil was repeated, except that pseudouridine, dihydrouracil, dihydrothymine, thymine, cytosine, or N-carbamyl-β-alanine (1 mg/mL) was used instead of uracil (1 mg/mL), to thereby investigate reactivity of the monoclonal antibody of the present invention with uracil compounds. As a comparative antibody, a monoclonal antibody (SU-1) derived from hybridoma “FERM BP-6141” described in WO 99/20748 was used.

The subject of test [3] is monoclonal antibody for psuedouridine. The settings on record: prior art antibody used for diagnosing a progressive cancer; cited from earlier work.

≈ marks a conversion by molar mass, not a printed value.

The source of these data is US6927035B1, “Antiuracil monoclonal antibody” (Taiho Pharmaceutical Co., LTD, priority 1999, dated 2005).

In the case of `Nc1cc[nH]c(=O)n1` [Cytosine], in test [1], the “percent absorption (reactivity) with monoclonal antibody CMU-1” value is on record as 15% and the “dose-dependent response of the antibody to the compound” value (“dose-dependent response” below) was “no dose-dependent response”. Further, the “percent absorption (reactivity) with comparative monoclonal antibody SU-1” value in test [2] is given as 15%.
`CC1CNC(=O)NC1=O` (stereo not shown) [Dihydrothymine]: in test [1], the “percent absorption (reactivity) with monoclonal antibody CMU-1” value amounted to 22% and the “dose-dependent response” value is reported as “no dose-dependent response”.
On to `O=C1CCNC(=O)N1` [Dihydrouracil], for which, in test [1], the “percent absorption (reactivity) with monoclonal antibody CMU-1” value stood at 8% and the “dose-dependent response” value is on record as “no dose-dependent response”. Besides, in test [2], the “percent absorption (reactivity) with comparative monoclonal antibody SU-1” value is 2%.
The corresponding values for `NC(=O)NCCC(=O)O` [N-Carbamyl-β-alanine] are 8%, “no dose-dependent response” and 91%.
As to `O=c1[nH]cc([C@@H]2O[C@H](CO)[C@@H](O)[C@H]2O)c(=O)[nH]1` [Pseudouridine], in test [1], the “percent absorption (reactivity) with monoclonal antibody CMU-1” value was determined as 32%, the “ED30 (concentration when the percent absorption reached 30%)” value was found to be 390 µg/mL (≈ 1600 µM) and the “dose-dependent response” value was “did exhibit dose-dependent response”. Moreover, the “percent absorption (reactivity) with comparative monoclonal antibody SU-1” value in test [2] is given as 26%. Moreover, the “reactivity with the monoclonal antibody for pseudouridine” value in test [3] was 95-99%.
With `Cc1c[nH]c(=O)[nH]c1=O` [Thymine], in test [1], the “percent absorption (reactivity) with monoclonal antibody CMU-1” value is reported as 91-97%, the “ED30 (concentration when the percent absorption reached 30%)” value was 15 µg/mL (≈ 119 µM), the “dose-dependent response” value is “exhibited dose-dependent response” and the “binding ability relative to pseudouridine” value is on record as 26 times. The “percent absorption (reactivity) with comparative monoclonal antibody SU-1” value in test [2] was 5%.
Take `O=c1cc[nH]c(=O)[nH]1` [Uracil]: in test [1], the “percent absorption (reactivity) with monoclonal antibody CMU-1” value is recorded as 95-96%, the “ED30 (concentration when the percent absorption reached 30%)” value turned out to be 30 µg/mL (≈ 268 µM), the “dose-dependent response” value is on record as “exhibited dose-dependent response” and the “binding ability relative to pseudouridine” value was 13 times. For the same compound, the “concentration range in which the compound is detected” value in test [1] (monoclonal antibody CMU-1, FIG. 1) lay in the range of 0.005 to 0.5 mg/mL. Also, the “percent absorption (reactivity) with comparative monoclonal antibody SU-1” value in test [2] amounted to 41%. Also, the “reactivity with the monoclonal antibody for pseudouridine” value in test [3] is given as 30-40%.
